Legend:
[1] = tested on: VCR resistant murine leukemia (P388/VCR) cells; assay: In vivo overcoming of resistance in VCR resistant murine leukemia (P388/VCR) bearing mice, etoposide with compound 20 mg/kg; design: species or system CDF1 female mice; details: VP-16 3 mg/kg + compound 20 mg/kg, i.v. once per day for 5 days; for Rate of prolongation of life T/C: vs control
Method: In Vivo Test of Action Suppressing Proliferation of Cancer Cells by Combined Administration of Anti-cancer Drug Etoposide
Effect of Overcoming Resistance to an Anti-cancer Drug for VCR Resistant Murine Leukemia Cell Bearing Mice
1.2×10^5 VCR resistant murine leukemia (P388/VCR) cells were transplanted intravenously into groups of 5-6 CDF1 female mice, then the compound of the present invention (20 mg/kg) and Etoposide (VP-16) (3 mg/kg) were administered intravenously once per day for 5 days, after dissolving them in a physiological salt solution containing a small amount of hydrochloric acid. The observation was started from the next day. The number of survival days were found and the life prolonging rate (T/C) with respect to the controls was found. The effect in overcoming resistance to an anti-cancer drug (T/V) was found by the following formula.
Effect of overcoming resistance to the anti-cancer drug (T/V) %
=[(Rate of prolongation of life using VP-16 and the present compound (T/C))/(Rate of prolongation of life using VP-16 alone (T/C))]×100

[2] = tested on: thoracic aorta of the rat; assay: Action easing KCl contraction in rat arteries; details: rat thoracic aorta ring, 50 mM KCl, compound 10^-6 M; read-out: Inhibitory rate of hyperpotassium contraction at 10^-6 M
Method: Action Easing KCl Contraction in Rat Arteries
The specimen was stabilized for approximately 60 minutes, then a potassium chloride solution was added to the Magnus tube to give a final concentration of 50 mM. The positive control compound or the compound of the present invention was cumulatively added to become 1×10^-6 M when the contraction reaction occurring at that time reached equilibrium. The contraction force was recorded by an FD-pickup (Nihon Koden) via a polygraph (Nihon Koden).

[3] = Acute toxicity test in mice, intraperitoneal; details: mouse, in vivo, ip, 7 days observation
Method: Animals used: ddY male mice (SLC Japan), 4-5 weeks old, three to five mice per group.
Test method: The compound of the present invention was suspended in 0.5% sodium carboxymethylcellulose (CMC-Na) containing 0.1% Tween 80. It was administered to the mice intraperitoneally in amounts of 250, 500 or 1000 mg/kg in groups of three to five mice. The survival of the animals was observed up until 7 days after administration and LD50 value was calculated according to a Probit method.

Row | SMILES | Average days of survival [1] | Rate of prolongation of life T/C [1] | inhibition at 1 µM [2] | LD50 at 168 h [3]
1 | CCCCCC1C(C(=O)OC(C)C#Cc2cccnc2)=C(C)NC(c2ccc(-n3c(C)nc4cnccc43)cc2)=C1C(=O)OCC (centres unmarked) [Compound 22, 6-Methyl-2-[4-(2-methylimidazo[4,5-c]pyridin-1-yl)phenyl]-4-pentyl-1,4-dihydropyridin-3,5-dicarboxylate 3-ethylester 5-[1-methyl-3-(3-pyridyl)-2-propynyl]ester] | 14.6 days | 159% | 0% | > 1000 mg/kg
2 | CCOC(=O)C1=C(c2ccc(-n3ccnc3)cc2)NC(C)=C(C(=O)OCC#Cc2cccnc2)C1/C=C/c1ccccc1 (centres unmarked) [Compound 24, 2-[4-(1-Imidazolyl)phenyl]-6-methyl-4-[(E)-2-phenylethenyl]-1,4-dihydropyridin-3,5-dicarboxylate 3-ethylester 5-[3-(3-pyridyl)-2-propynyl]ester] |  |  |  | > 1000 mg/kg
3 | CCOC(=O)C1=C(c2ccc(-n3c(C)nc4cnccc43)cc2)NC(C)=C(C(=O)OCC#Cc2cccnc2)C1CCc1ccsc1 (centres unmarked) [Compound 17, 6-Methyl-2-[4-(2-methylimidazo[4,5-c]pyridin-1-yl)phenyl]-4-[2-(3-thienyl)ethyl]-1,4-dihydropyridin-3,5-dicarboxylate 3-ethylester 5-[3-(3-pyridyl)2-propynyl]ester] | 13.4 days | 146% | 0% | 
4 | CCOC(=O)C1=C(c2ccc(-n3c(C)nc4cnccc43)cc2)NC(C)=C(C(=O)OCC#Cc2cccnc2)C1CCc1ccccc1 (centres unmarked) [Compound 9, 6-Methyl-2-[4-(2-methylimidazo[4,5-c]pyridin-1-yl)phenyl]-4-(2-phenylethyl)-1,4-dihydropyridin-3,5-dicarboxylate 3-ethylester 5-[3-(3-pyridyl)-2-propynyl]ester] | 15.0 days | 163% |  | > 1000 mg/kg
5 | CCOC(=O)C1=C(c2ccc(-n3c(C)nc4cnccc43)cc2)NC(C)=C(C(=O)OCC#Cc2cccnc2)C1/C=C/c1ccccc1OC (centres unmarked) [Compound 14, 4-[(E)-2-(2-Methoxyphenyl)ethenyl]-6-methyl-2-[4-(2-methylimidazo[4,5-c]pyridin-1-yl)phenyl]-1,4-dihydropyridin-3,5-dicarboxylate 3-ethylester 5-[3-(3-pyridyl)-2-propynyl]ester] | 15.7 days | 154% | 0% | 
6 | CCOC(=O)C1=C(c2ccc(-n3c(C)nc4cnccc43)cc2)NC(C)=C(C(=O)OCC#Cc2cccnc2)C1C (centres unmarked) [Compound 1, 4,6-dimethyl-2-[4-(2-methylimidazo[4,5-c]pyridin-1-yl)phenyl]-1,4-dihydropyridin-3,5-dicarboxylic acid 3-ethylester 5-[3-(3-pyridyl)-2-propynyl]ester] | 13.6 days | 148% | 0% | 
7 | CCOC(=O)C1=C(c2ccc(-n3c(C)nc4cnccc43)cc2)NC(C)=C(C(=O)OCC#Cc2cccnc2)C1Cc1ccccc1 (centres unmarked) [Compound 6, 4-Benzyl-6-methyl-2-[4-(2-methylimidazo[4,5-c]pyridin-1-yl)phenyl]-1,4-dihydropyridin-3,5-dicarboxylate 3-ethylester 5-[3-(3-pyridyl)-2-propynyl]ester] | 16.0 days | 174% | 7.5% | 
8 | CCOC(=O)C1=C(c2ccc(-n3c(C)nc4cnccc43)cc2)NC(C)=C(C(=O)OCC#Cc2cccnc2)C1/C=C/c1ccco1 (centres unmarked) [Compound 16, 4-[(E)-2-(2-Furyl)ethenyl]-6-methyl-2-[4-(2-methylimidazo[4,5c]pyridin-1-yl)phenyl]1,4-dihdropyridin-3,5-dicarboxylate 3-ethylester 5-[3-(3-pyridyl)-2-propynyl]ester] | 15.0 days | 147% | 0% | 

From patent US6306853A, “1,4-Dihydropyridine derivatives” (Nikken Chemicals Co., Ltd., priority 1998, dated 2001)
